# Measurements taken from patent publication US6417202B1, “Pyridylpyrrole compounds useful as interleukin-and TNF antagonists” (Pfizer Inc., priority 1996, dated 2002).
row,SMILES,melting point
1,"O=C1CCCc2c(-c3ccccc3)[nH]c(-c3ccncc3)c21 [Example 54, 7-Oxo-3-phenyl-1-(4-pyridyl)-4,5,6,7-tetrahydroisoindole]",254 to 255 °C
2,"CC(=O)c1c(-c2cccc(Oc3ccc(F)cc3)c2)[nH]c(-c2ccncc2)c1C [Example 62, 3-Acetyl-2-{3-(4-fluorophenoxy)phenyl}-4-methyl-5-(4-pyridyl)-1H-pyrrole]",158 to 159 °C
3,"CC(=O)c1c(-c2ccc([S+](C)[O-])cc2)[nH]c(-c2ccncc2)c1C (stereo not shown) [Example 75, 3-Acetyl-4-methyl-2-(4-methylsulfinylphenyl)-5-(4-pyridyl)-1H-pyrrole]",249 to 250 °C
4,"CCCCc1c(-c2ccncc2)[nH]c(-c2ccncc2)c1C(C)=O [Example 31, 3-Acetyl-4-butyl-2,5-di(4-pyridyl)-1H-pyrrole]",93 to 95 °C
5,"CC(=O)c1c(-c2cccc([N+](=O)[O-])c2)[nH]c(-c2ccncc2)c1C [Example 64, 3-Acetyl-4-methyl-2-(3-nitrophenyl)-5-(4-pyridyl)-1H-pyrrole]",214 to 217 °C
6,"CC(=O)c1c(-c2cccc3ccccc23)[nH]c(-c2ccncc2)c1C [Example 61, 3-Acetyl-4-methyl-2-(1-naphthyl)-5-(4-pyridyl)-1H-pyrrole]",218 to 220 °C
7,"CC(=O)c1c(-c2ccncc2)[nH]c(-c2ccncc2)c1-c1ccccc1 [Example 7, 3-Acetyl-4-phenyl-2,5-di(4-pyridyl)-1H-pyrrole]",208 to 210 °C
8,"CC(=O)c1c(N2CCN(c3ccccn3)CC2)[nH]c(-c2ccncc2)c1C [Example 81, 3-Acetyl-4-methyl-5-(4-pyridyl)-2-{4-(2-pyridyl)piperazin-1-yl}-1H-pyrrole]",89 to 92 °C
9,"CCCCOC(=O)c1c(-c2ccncc2)[nH]c(-c2ccncc2)c1C [Example 19, 3-Butoxycarbonyl-4-methyl-2,5-di(4-pyridyl)-1H-pyrrole]",182 to 186 °C
10,"CCC(=O)c1c(-c2ccncc2)[nH]c(-c2ccncc2)c1CC [Example 3, 4-Ethyl-3-propanoyl-2,5-di(4-pyridyl)-1H-pyrrole]",209 to 211 °C
11,"Cc1c(-c2ccncc2)[nH]c2c1C(=O)CC(C)C2 (stereo not shown) [Example 86, 3,6-Dimethyl-4-oxo-2-(4-pyridyl)-4,5,6,7-tetrahydro-1H-indole]",247 to 248 °C
12,"CC(=O)c1c(-c2cccs2)[nH]c(-c2ccncc2)c1C [Example 52, 3-Acetyl-4-methyl-5-(4-pyridyl)-2-(2-thienyl)-1H-pyrrole]",231 to 232 °C
13,"CCC(=O)c1c(-c2ccncc2)[nH]c(-c2ccncc2)c1C [Example 5, 4-Methyl-3-propanoyl-2,5-di(4-pyridyl)-1H-pyrrole]",237 to 238 °C
14,"CC(=O)c1c(CO)[nH]c(-c2ccncc2)c1C [Example 89, 3-Acetyl-2-hydroxymethyl-4-methyl-5-(4-pyridyl)-1H-pyrrole]",163 to 165 °C
15,"Cc1c(-c2ccncc2)[nH]c2c1C(=O)CSC2 [Example 87, 3-Methyl-4-oxo-2-(4-pyridyl)-6-thia-4,5,6,7-tetrahydro-1H-indole]",209 to 210 °C
16,"O=C1CCCc2c(-c3ccncc3)[nH]c(-c3ccccc3)c21 [Example 53, 4-Oxo-3-phenyl-1-(4-pyridyl)-4,5,6,7-tetrahydroisoindole]",259 to 260 °C

row,SMILES,melting point
1,"CC(=O)c1c(-c2ccc(C=O)cc2)[nH]c(-c2ccncc2)c1C [Example 60, 3-Acetyl-2-(4-formylphenyl)-4-methyl-5-(4-pyridyl)-1H-pyrrole]",97 to 100 °C
2,"CC(=O)c1c(-c2ccc(Cl)cc2)[nH]c(-c2ccncc2)c1C [Example 68, 3-Acetyl-2-(4-chlorophenyl)-4-methyl-5-(4-pyridyl)-1H-pyrrole]",187.5 to 189.5 °C
3,"CC(=O)c1c(N2C[C@@H](C)O[C@@H](C)C2)[nH]c(-c2ccncc2)c1C [Example 80, 3-Acetyl-2-(cis-2,6-dimethylmorpholin-4-yl)-4-methyl-5-(4-pyridyl)-1H-pyrrole]",95 to 100 °C
4,"CCCOC(=O)c1c(-c2ccncc2)[nH]c(-c2ccncc2)c1C [Example 17, 4-Methyl-3-propoxycarbonyl-2,5-di(4-pyridyl)-1H-pyrrole]",215 to 218 °C
5,"CC(=O)c1c(-c2ccncc2)[nH]c(-c2ccncc2)c1C(F)(F)F [Example 4, 3-Acetyl-2,5-di(4-pyridyl)-4-trifluoromethyl-1H-pyrrole]",250 to 255 °C
6,"Cc1c(-c2ccncc2)[nH]c2c1C(=O)C(C)(C)CC2 [Example 82 (3,5,5-trimethyl), 4-Oxo-2-(4-pyridyl)-3,5,5-trimethyl-4,5,6,7-tetrahydro-1H-indole]",237 to 239 °C
7,"CC(=O)c1cc(-c2ccncc2)[nH]c1C [Example 43, 3-Acetyl-2-methyl-5-(4-pyridyl)-1H-pyrrole]",236 to 237 °C
8,"CC(=O)c1c(-c2ccc3ccccc3c2)[nH]c(-c2ccncc2)c1C [Example 59, 3-Acetyl-4-methyl-2-(2-naphthyl)-5-(4-pyridyl)-1H-pyrrole]",116 to 123 °C
9,"Cc1c(-c2ccncc2)[nH]c(-c2ccncc2)c1C(=O)OC(C)C [Example 15, 4-Methyl-3-(1-methylethoxy)carbonyl-2,5-di(4-pyridyl)-1H-pyrrole]",218 to 221 °C
10,"COC(=O)c1c(-c2ccccc2)[nH]c(-c2ccncc2)c1C [Example 91, Methyl 4-Methyl-2-phenyl-5-(4-pyridyl)pyrrole-3-carboxylate]",202 to 204 °C
11,"CC(=O)c1c(-c2ccsc2)[nH]c(-c2ccncc2)c1C [Example 70, 3-Acetyl-4-methyl-5-(4-pyridyl)-2-(3-thienyl)-1H-pyrrole]",240 to 244 °C
12,"CC(=O)c1c(-c2ccc(F)c(Cl)c2)[nH]c(-c2ccncc2)c1C [Example 66, 3-Acetyl-2-(3-chloro-4-fluorophenyl)-4-methyl-5-(4-pyridyl)-1H-pyrrole]",206 to 209 °C
13,"CCc1c(-c2ccncc2)[nH]c(-c2ccncc2)c1C(C)=O [Example 28, 3-Acetyl-4-ethyl-2,5-di(4-pyridyl)-1H-pyrrole]",241 to 243 °C
14,"CCCc1c(-c2ccncc2)[nH]c(-c2ccncc2)c1C(C)=O [Example 29, 3-Acetyl-4-propyl-2,5-di(4-pyridyl)-1H-pyrrole]",111 to 113 °C
15,"CC(=O)c1c(-c2ccnc3ccccc23)[nH]c(-c2ccnc3ccccc23)c1C [Example 8, 3-Acetyl-4-methyl-2,5-di(4-quinolyl)-1H-pyrrole]",> 260 °C
